Measured values from patent US20220144838A1, “Compounds as Inhibitors of Macrophage Migration Inhibitory Factor” (NANJING IMMUNOPHAGE BIOTECH CO., LTD., priority 2019, published 2022).

biological target: T1, MIF (Homo sapiens, UniProt P14174); experiment: MIF tautomerase assay using pHPP as substrate; assay type: biochemical; conditions: inhibition of the MIF enzyme in vitro; mean of multiple test results; read-out: Tautomerase Inhibition pIC50 (converted)
T1 sequence (P14174 2-115 limits assumed): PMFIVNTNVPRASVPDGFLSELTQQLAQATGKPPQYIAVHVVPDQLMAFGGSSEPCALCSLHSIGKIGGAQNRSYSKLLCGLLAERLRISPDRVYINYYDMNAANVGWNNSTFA
Summary of the method: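 Mean pIC50 derived from initial rates (absorbance progress-curve slopes) of MIF-catalyzed ketonic-to-enolic pHPP conversion, read as enol–borate complex. Reactions contained 1.5 mM substrate and 3 nM enzyme (final), 200 mM boric acid stock buffer, BSA and CHAPS, pH 6.0.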

Row | SMILES | IC50 [nM]
1 | O=C(O)CCCCn1cnc2c(-n3ncc4ccccc43)nc(N3CCC(O)(c4ccc(O)cc4)CC3)nc21 [Example 217, 5-(2-(4-hydroxy-4-(4-hydroxyphenyl)piperidin-1-yl)-6-(1H-indazol-1-yl)-9H-purin-9-yl)pentanoic acid] | 10 to 97.7
2 | CN(CC(=O)O)c1nc(N2CCC(O)(c3ccc(O)cc3)CC2)nc2c1ncn2-c1ccncc1 [Example 205, N-(2-(4-hydroxy-4-(4-hydroxyphenyl)piperidin-1-yl)-9-(pyridin-4-yl)-9H-purin-6-yl)-N-methylglycine] | 100 to 977
3 | CN(CCC(=O)O)c1nc(N2CCN(c3ccc(O)cc3)CC2)nc2c1ncn2-c1ccncc1 [Example 165, 3-((2-(4-(4-hydroxyphenyl)piperazin-1-yl)-9-(pyridin-4-yl)-9H-purin-6-yl)(methyl)amino)propanoic acid] | 10 to 97.7
4 | Nc1nc(N2CC(O)(c3cn[nH]c3)C2)nc2c1ncn2-c1ccncc1 [Example 199, 1-(6-amino-9-(pyridin-4-yl)-9H-purin-2-yl)-3-(1H-pyrazol-4-yl)azetidin-3-ol] | > 10000
5 | COc1cc(-n2cnc3c(N)nc(N4CCN(c5ccc(O)cc5)CC4)nc32)ccn1 [Example 82, 4-(4-(6-amino-9-(2-methoxypyridin-4-yl)-9H-purin-2-yl)piperazin-1-yl)phenol] | 100 to 977
6 | O=C(O)Cn1cnc2c(-n3c(CO)nc4ccccc43)nc(N3CCN(c4ccc(O)cc4)CC3)nc21 [Example 29, 2-(6-(2-(hydroxymethyl)-1H-benzo[d]imidazol-1-yl)-2-(4-(4-hydroxyphenyl)piperazin-1-yl)-9H-purin-9-yl)acetic acid] | > 10000
7 | Oc1ccc(N2CCN(c3nc(NC4CCCC4)c4ncn(-c5cccnc5)c4n3)CC2)cc1 [Example 96, 4-(4-(6-(cyclopentylamino)-9-(pyridin-3-yl)-9H-purin-2-yl)piperazin-1-yl)phenol] | 1000 to 9770
8 | O=C(O)Cn1cnc2c(N3N=CC4C=CC=CC43)nc(N3CCN(c4ccccc4)CC3)nc21 (stereo not drawn) [Example 48, 2-(6-(3a,7a-dihydro-1H-indazol-1-yl)-2-(4-phenylpiperazin-1-yl)-9H-purin-9-yl)acetic acid] | 100 to 977
9 | CCC(C(=O)O)n1cnc2c(-n3ncc4ccccc43)nc(N3CCN(c4ccc(O)cc4)CC3)nc21 (stereo not drawn) [Example 127, 2-(2-(4-(4-hydroxyphenyl)piperazin-1-yl)-6-(1H-indazol-1-yl)-9H-purin-9-yl)butanoic acid] | 10 to 97.7
10 | Oc1ccc(N2CCN(c3nc(-n4ncc5ccccc54)c4ncn(C5CCOC5)c4n3)CC2)nc1 (stereo not drawn) [Example 228, 6-(4-(6-(1H-indazol-1-yl)-9-(tetrahydrofuran-3-yl)-9H-purin-2-yl)piperazin-1-yl)pyridin-3-ol] | 100 to 977
11 | Oc1ccc(N2CCN(c3nc(NCc4ccccc4)c4ncn(-c5cccnc5)c4n3)CC2)cc1 [Example 90, 4-(4-(6-(benzylamino)-9-(pyridin-3-yl)-9H-purin-2-yl)piperazin-1-yl)phenol] | 1000 to 9770
12 | Cc1nc(N2CCC(O)(c3ccc(O)cc3)CC2)nc2c1ncn2-c1cccnc1 [Example 204, 4-(4-hydroxyphenyl)-1-(6-methyl-9-(pyridin-3-yl)-9H-purin-2-yl)piperidin-4-ol] | 10 to 97.7
13 | Nc1nc(N2CCC(O)(c3ccc(O)cc3)CC2)nc2c1ncn2-c1ccncc1 [Example 155, 1-(6-amino-9-(pyridin-4-yl)-9H-purin-2-yl)-4-(4-hydroxyphenyl)piperidin-4-ol] | 10 to 97.7
14 | O=C(O)Cn1cnc2c(-c3c[nH]c4ccccc34)nc(N3CCN(c4ccc(O)cc4)CC3)nc21 [Example 25, 2-(2-(4-(4-hydroxyphenyl)piperazin-1-yl)-6-(1H-indol-3-yl)-9H-purin-9-yl)acetic acid] | 1000 to 9770
15 | O=C(O)Cn1cnc2c(-n3nc(-c4cccnc4)c4ccccc43)nc(N3CCN(c4ccc(O)cc4)CC3)nc21 [Example 36, 2-(2-(4-(4-hydroxyphenyl)piperazin-1-yl)-6-(3-(pyridin-3-yl)-1H-indazol-1-yl)-9H-purin-9-yl)acetic acid] | 100 to 977
16 | O=C(O)Cn1cnc2c(-n3nc(C(=O)O)c4ccccc43)nc(N3CCN(c4ccc(O)cc4)CC3)nc21 [Example 10, 1-(9-(carboxymethyl)-2-(4-(4-hydroxyphenyl)piperazin-1-yl)-9H-purin-6-yl)-1H-indazole-3-carboxylic acid] | 10 to 97.7
17 | OCCn1cnc2c(-n3ncc4ccccc43)nc(N3CC(O)(c4ccccc4)C3)nc21 [Example 225, 1-(9-(2-hydroxyethyl)-6-(1H-indazol-1-yl)-9H-purin-2-yl)-3-phenylazetidin-3-ol] | 1000 to 9770
18 | CC(=O)NCCn1cnc2c(-n3ncc4ccccc43)nc(N3CCN(c4ccc(O)cc4)CC3)nc21 [Example 138, N-(2-(2-(4-(4-hydroxyphenyl)piperazin-1-yl)-6-(1H-indazol-1-yl)-9H-purin-9-yl)ethyl)acetamide] | 100 to 977

Row | SMILES | IC50 [nM]
19 | Cc1nc(N2CCN(c3ccc(O)cc3)CC2)nc2c1ncn2CCO [Example 111, 4-(4-(9-(2-hydroxyethyl)-6-methyl-9H-purin-2-yl)piperazin-1-yl)phenol] | 1000 to 9770
20 | Nc1nc(N2CCN(c3ccc(O)cc3)CC2)nc2c1ncn2-c1cccc(-c2ccccc2)c1 [Example 78, 4-(4-(9-([1,1′-biphenyl]-3-yl)-6-amino-9H-purin-2-yl)piperazin-1-yl)phenol] | 1000 to 9770
21 | O=C(O)Cn1cnc2c(-n3nnc4c(CO)cccc43)nc(N3CCN(c4ccc(O)cc4)CC3)nc21 [Example 123, 2-(6-(4-(hydroxymethyl)-1H-benzo[d][1,2,3]triazol-1-yl)-2-(4-(4-hydroxyphenyl)piperazin-1-yl)-9H-purin-9-yl)acetic acid] | 10 to 97.7
22 | OCCn1cnc2c(N[C@@H]3CCc4ccccc43)nc(N3CCN(c4ccc(O)cc4)CC3)nc21 [Example 6, (R)-4-(4-(6-((2,3-dihydro-1H-inden-1-yl)amino)-9-(2-hydroxyethyl)-9H-purin-2-yl)piperazin-1-yl)phenol] | > 10000
23 | O=C(O)Cn1cnc2c(N3Cc4ccccc4C3=O)nc(N3CCN(c4ccc(O)cc4)CC3)nc21 [Example 119, 2-(2-(4-(4-hydroxyphenyl)piperazin-1-yl)-6-(1-oxoisoindolin-2-yl)-9H-purin-9-yl)acetic acid] | 100 to 977
24 | Nc1nc(N2CC(O)(c3ccc(CO)cc3)C2)nc2c1ncn2-c1ccncc1 [Example 214, 1-(6-amino-9-(pyridin-4-yl)-9H-purin-2-yl)-3-(4-(hydroxymethyl)phenyl) azetidin-3-ol] | > 10000
25 | O=C(O)C(CC1CC1)n1cnc2c(-n3ncc4ccccc43)nc(N3CCN(c4ccc(O)cn4)CC3)nc21 (stereo not drawn) [Example 151, 3-cyclopropyl-2-(2-(4-(5-hydroxypyridin-2-yl)piperazin-1-yl)-6-(1H-indazol-1-yl)-9H-purin-9-yl)propanoic acid] | 10 to 97.7
26 | Oc1ccc(C2(O)CCN(c3nc(Nc4ccncc4)c4nc[nH]c4n3)CC2)cc1 [Example 219, 4-(4-hydroxyphenyl)-1-(6-(pyridin-4-ylamino)-9H-purin-2-yl)piperidin-4-ol] | 100 to 977
27 | Cc1nc(N2CCC(O)(c3ccc(O)cc3)CC2)nc2c1ncn2CC(=O)O [Example 215, 2-(2-(4-hydroxy-4-(4-hydroxyphenyl)piperidin-1-yl)-6-methyl-9H-purin-9-yl)acetic acid] | > 10000
28 | O=C(O)Cn1cnc2c(-c3cccc4[nH]ncc34)nc(N3CCN(c4ccc(O)cc4)CC3)nc21 [Example 34, 2-(2-(4-(4-hydroxyphenyl)piperazin-1-yl)-6-(1H-indazol-4-yl)-9H-purin-9-yl)acetic acid] | 1000 to 9770
29 | NCCn1cnc2c(-n3ncc4ccccc43)nc(N3CCN(c4ccc(O)cc4)CC3)nc21 [Example 137, 4-(4-(9-(2-aminoethyl)-6-(1H-indazol-1-yl)-9H-purin-2-yl)piperazin-1-yl)phenol] | 1000 to 9770
30 | Nc1nc(N2CCN(c3ccc(O)cc3)CC2)nc2c1ncn2C1CCCC(C(=O)O)C1 (mixture of isomers) [Example 189, 3-(6-amino-2-(4-(4-hydroxyphenyl)piperazin-1-yl)-9H-purin-9-yl)cyclohexane-1-carboxylic acid] | > 10000
31 | O=C(O)Cn1cnc2c(-n3ncc4ccccc43)nc(N3CC(O)(c4ccc(O)cc4)C3)nc21 [Example 216, 2-(2-(3-hydroxy-3-(4-hydroxyphenyl)azetidin-1-yl)-6-(1H-indazol-1-yl)-9H-purin-9-yl)acetic acid] | 10 to 97.7
32 | Nc1nc(N2CCN(c3ccc(O)cc3)CC2)nc2c1ncn2-c1cccc(O)c1 [Example 77, 3-(6-amino-2-(4-(4-hydroxyphenyl)piperazin-1-yl)-9H-purin-9-yl)phenol] | 1000 to 9770
33 | OC[C@@H](COCc1ccccc1)Nc1nc(N2CCN(c3ccc(O)cc3)CC2)nc2c1ncn2-c1ccncc1 [Example 176, (S)-4-(4-(6-((1-(benzyloxy)-3-hydroxypropan-2-yl)amino)-9-(pyridin-4-yl)-9H-purin-2-yl)piperazin-1-yl)phenol] | 100 to 977
34 | Oc1ccc(N2CCN(c3cc(-n4ncc5ccccc54)n4ncc(Br)c4n3)CC2)cc1 [Example 13, 4-(4-(3-bromo-7-(1H-indazol-1-yl)pyrazolo[1,5-a]pyrimidin-5-yl)piperazin-1-yl)phenol] | > 10000
35 | O=C(O)CCn1cnc2c(N3CCc4ccccc43)nc(N3CCN(c4ccc(O)cc4)CC3)nc21 [Example 8, 3-(2-(4-(4-hydroxyphenyl)piperazin-1-yl)-6-(indolin-1-yl)-9H-purin-9-yl)propanoic acid] | 100 to 977
36 | Nc1nc(N2CCC(c3ccc(O)cc3)CC2)nc2c1ncn2-c1ccncc1 [Example 157, 4-(1-(6-amino-9-(pyridin-4-yl)-9H-purin-2-yl)piperidin-4-yl)phenol] | 10 to 97.7
